Source: patent publication US9718828B2 (MERCK SHARP & DOHME CORP., priority 2011, dated 2017)

Target: hBTK (full-length BTK, 6HIS-tag cleaved) (Homo sapiens (Human), UniProt Q06187)
Experiment: BTK enzymatic activity, IMAP-FP assay (Assay Method B)
Assay type: biochemical
Settings: not given
Protocol: BTK enzymatic activity was determined in an IMAP-FP assay (Immobilized Metal ion Affinity-based fluorescence Polarization; Molecular Devices). […] Phosphorylation reactions were allowed to proceed for 120 minutes and were immediately quenched by the addition of 40 μL IMAP detection beads resuspended in IMAP progressive binding buffer (beads were diluted 1:600 in 75% and 25% progressive binding buffer A and B, respectively; Molecular Devices). Plates were read on Packard microplate reader after 60 minutes binding equilibration using Fluorescence Polarization protocol.

hBTK (full-length BTK, 6HIS-tag cleaved), sequence (Q06187 whole entry): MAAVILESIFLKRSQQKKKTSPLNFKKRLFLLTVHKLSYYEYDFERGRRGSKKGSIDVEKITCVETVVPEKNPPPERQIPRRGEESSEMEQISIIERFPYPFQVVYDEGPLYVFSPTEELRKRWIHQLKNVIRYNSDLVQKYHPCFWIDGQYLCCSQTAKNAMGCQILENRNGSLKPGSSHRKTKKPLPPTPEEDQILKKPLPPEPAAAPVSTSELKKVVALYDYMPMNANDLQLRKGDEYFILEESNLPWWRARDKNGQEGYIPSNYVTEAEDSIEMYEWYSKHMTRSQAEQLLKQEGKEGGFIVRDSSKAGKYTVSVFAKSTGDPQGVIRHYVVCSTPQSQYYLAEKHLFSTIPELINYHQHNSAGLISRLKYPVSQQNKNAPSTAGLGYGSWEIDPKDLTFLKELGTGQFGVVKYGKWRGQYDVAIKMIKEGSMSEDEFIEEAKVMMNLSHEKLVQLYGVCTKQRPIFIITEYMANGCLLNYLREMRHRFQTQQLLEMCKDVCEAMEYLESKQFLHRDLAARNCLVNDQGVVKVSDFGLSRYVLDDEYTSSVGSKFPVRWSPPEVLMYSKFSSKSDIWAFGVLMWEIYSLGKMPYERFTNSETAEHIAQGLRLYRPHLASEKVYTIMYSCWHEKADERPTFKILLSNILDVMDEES

In the case of `CCc1ccnc(NC(=O)c2ccc(-c3cn([C@@H]4CCCN(C(=O)C5(C)COC5)C4)c4ncnc(N)c34)cc2)c1` [Example 391, 4-(4-amino-7-{(3R)-1-[(3-methyloxetan-3-yl)carbonyl]piperidin-3-yl}-7H-pyrrolo[2,3-d]pyrimidin-5-yl)-N-(4-ethylpyridin-2-yl)benzamide], the IC50 is reported as 10 to 100 nM.

Same assay, conditions: IMAP-FP, 1.05 nM hBTK, 5 μM ATP; class 100-1000 is given as ≧100 nM-<1 μM; read-out: IC50 Btk activity values - Assay Method B

Compared with `CN1CCS(=O)(=O)C(c2nc(-c3ccc(C(=O)Nc4cc(C(F)(F)F)ccn4)cc3)c3c(N)nccn23)C1` (stereo not shown) [Example 570, 4-[8-amino-3-(4-methyl-1,1-dioxidothiomorpholin-2-yl)imidazo[1,5-a]pyrazin-1-yl]-N-[4-(trifluoromethyl)pyridin-2-yl]benzamide], `CN1CCO[C@@H](c2nc(-c3ccc(C(=O)Nc4cc(C(F)(F)F)ccn4)cc3)c3c(N)nccn23)C1` [Example 497, 4-{8-amino-3-[(2R)-4-methylmorpholin-2-yl]imidazo[1,5-a]pyrazin-1-yl}-N-[4-(trifluoromethyl)pyridin-2-yl]benzamide] is lower in IC50: 100 to 1000 nM for the first, 10 to 100 nM for the second. The second is the more potent here.

First: COCCC(=O)N1CCC[C@@H](c2nc(-c3ccc(C(=O)Nc4ccccn4)cc3O)c3c(N)nccn23)C1 [Example 475, 4-{8-amino-3-[(3R)-1-(3-methoxypropanoyl)piperidin-3-yl]imidazo[1,5-a]pyrazin-1-yl}-3-hydroxy-N-pyridin-2-ylbenzamide]
Second: C[C@H]1CC[C@@H](c2nc(-c3ccc(C(=O)Nc4ccccn4)cc3)c3c(N)nccn23)CN1C(=O)C1CC1 (stereo in doubt) [Example 394, 4-{8-amino-3-[(3R,6S)-1-(cyclopropylcarbonyl)-6-methylpiperidin-3-yl]imidazo[1,5-a]pyrazin-1-yl}-N-pyridin-2-ylbenzamide]
The IC50 of the first is higher: 10 to 100 nM for the first, less than 10 nM for the second. The second is the more potent here.

`Cc1ccnc(NC(=O)c2ccc(-c3nc([C@@H]4CC[C@H](C)N(C(=O)C5(C)COC5)C4)n4ccnc(N)c34)cc2)c1` [Example 402, 4-(8-amino-3-{(3R,6S)-6-methyl-1-[(3-methyloxetan-3-yl)carbonyl]piperidin-3-yl}imidazo[1,5-a]pyrazin-1-yl)-N-(4-methylpyridin-2-yl)benzamide] and `C[C@@H]1[C@H](c2nc(-c3ccc(C(=O)Nc4cc(C(F)(F)F)ccn4)cc3)c3c(N)nccn23)CCCN1C(=O)C1(C)COC1` [Example 379, 4-(8-amino-3-{(2R,3R)-2-methyl-1-[(3-methyloxetan-3-yl)carbonyl]piperidin-3-yl}imidazo[1,5-a]pyrazin-1-yl)-N-[4-(trifluoromethyl)pyridin-2-yl]benzamide] cannot be ordered by IC50: less than 10 nM for the first, less than 10 nM for the second.

Compared with `CCN1C[C@@H](c2nc(-c3ccc(C(=O)Nc4cc(C(F)(F)F)ccn4)cc3)c3c(N)nccn23)CC[C@@H]1C(F)(F)F` [Example 406, 4-{8-amino-3-[(3S,6R)-1-ethyl-6-(trifluoromethyl)piperidin-3-yl]imidazo[1,5-a]pyrazin-1-yl}-N-[4-(trifluoromethyl)pyridin-2-yl]benzamide], `CC1(C(=O)N2C[C@H](c3nc(-c4ccc(C(=O)Nc5cc(C(F)(F)F)ccn5)cc4)c4c(N)nccn34)CC(F)(F)C2)COC1` (stereo in doubt) [Example 376, 4-(8-amino-3-{5,5-difluoro-1-[(3-methyloxetan-3-yl)carbonyl]piperidin-3-yl}imidazo[1,5-a]pyrazin-1-yl)-N-[4-(trifluoromethyl)pyridin-2-yl]benzamide] is lower in IC50: 10 to 100 nM for the first, less than 10 nM for the second.

Compared with `COCC1(C(=O)N2CCO[C@@H](c3nc(-c4ccc(C(=O)Nc5cc(C(F)(F)F)ccn5)cc4)c4c(N)nccn34)C2)CCC1` [Example 500, 4-{8-amino-3-[(2R)-4-{[1-(methoxymethyl)cyclobutyl]carbonyl}morpholin-2-yl]imidazo[1,5-a]pyrazin-1-yl}-N-[4-(trifluoromethyl)pyridin-2-yl]benzamide], `C[C@H]1C[C@@H](c2nc(-c3ccc(C(=O)Nc4cc(C(F)(F)F)ccn4)cc3)c3c(N)nccn23)CN(C(=O)C2(C)COC2)C1` [Example 374, 4-(8-amino-3-{(3R,5S)-5-methyl-1-[(3-methyloxetan-3-yl)carbonyl]piperidin-3-yl}imidazo[1,5-a]pyrazin-1-yl)-N-[4-(trifluoromethyl)pyridin-2-yl]benzamide] is lower in IC50: 10 to 100 nM for the first, less than 10 nM for the second. The second is the more potent here.

Compared with `C[C@H]1[C@H](c2nc(-c3ccc(C(=O)Nc4cc(C(F)(F)F)ccn4)cc3)c3c(N)nccn23)CCCN1C(=O)C1(C)COC1` [Example 380, 4-(8-amino-3-{(2S,3R)-2-methyl-1-[(3-methyloxetan-3-yl)carbonyl]piperidin-3-yl}imidazo[1,5-a]pyrazin-1-yl)-N-[4-(trifluoromethyl)pyridin-2-yl]benzamide], `C[C@@H]1CCN(C(=O)C2(C)COC2)C[C@@H]1c1nc(-c2ccc(C(=O)Nc3cc(C(F)(F)F)ccn3)cc2)c2c(N)nccn12` [Example 377, 4-(8-amino-3-{(3R,4R)-4-methyl-1-[(3-methyloxetan-3-yl)carbonyl]piperidin-3-yl}imidazo[1,5-a]pyrazin-1-yl)-N-[4-(trifluoromethyl)pyridin-2-yl]benzamide] is higher in IC50: 10 to 100 nM for the first, 100 to 1000 nM for the second. The first is the more potent here.
